Laboratory results: patent EP0980354B1, “VITAMIN D3 ANALOGS WITH BIS C-20 SIDE CHAINS” (priority 1997, dated 1998)

Tests used:
[1] = tested on: parathyroid hormone; experiment: Secondary hyperparathyroidism in the 7/8 nephrectomy rat renal insufficiency model (serum PTH, serum calcium); assay type: in vivo, Female Sprague Dawley rats; parameters: Final Ca Levels (mg/ml): unit not given here; conditions: for Final Ca Levels (mg/ml) / PTH pg/ml T=1-T=0: 7 days, 7/8 nephrectomized rats, serum
Description: • Compound of Formula Ia • 1,25(OH)2 vitamin D3 (control) • Vehicle - Miglyol 812
Female Sprague Dawley rats were anesthesized, their right kidney removed and 2-3 branches of the left renal artery were ligated to achieve 7/8 nephrectomy. They were placed on a high phosphorous diet (0.6% Ca and 0.8 phosphorous). Approximately 3-6 weeks after surgery, rats were bled to screen serum PTH levels and rats with PTH levels between 100-500 pg/ml were selected for the study.
There was a pre-bleed (T=0) and each group was dosed daily for seven days by oral gavage with either the compound of Formula Ia (10, 1 or 0.1 µg/kg/day), vehicle control or […] positive control. Compounds were predissolved in ethanol and diluted with vehicle (Miglyol 812) followed by evaporation of the ethanol.
After the last day of dosing, the animals were bled again (T=1) and sacrificed. Serum PTH assays were done with Nichols Institute Diagnostic Kit #40-2240. Serum calcium assays were done with Sigma Diagnostic Kit #587 with o-cresophthalein. Serum creatinine assays were done with Sigma Diagnostic Kit #1600-320 with ammonium molybdate.

[2] = tested on: ZR-75 cells; experiment: Cell proliferation assay in ZR-75 breast cancer cells (MTT); assay type: cell-based, human; conditions: for IC50: ZR-75 cells, 10 days of culture, MTT
Experimental: ZR-75 cells are human mammary carcinoma cells that are positive for estrogen receptors. The potential activity of vitamin D3 analogs against breast cancer was assessed from inhibition of proliferation of ZR-75 cells in culture.
ZR-75 cells were plated at 12,500 cells/well in 24-well plates and incubated at 37°C in 5% CO2/95% air in RPMI medium containing 10% fetal bovine serum and 2 mM glutamine. Stock solutions of vitamin D3 analogs were prepared at a concentration of 10 mM in absolute ethanol and stored at -20°C under argon. One day after plating, ZR-75 cells were refed with either control medium or medium containing varying concentrations of the vitamin D3 analog.
The IC50 value was defined as the concentration of the vitamin D3 analog corresponding to half-maximal reduction in 570 nm absorbance.

[3] = tested on: MCF-7 cells; experiment: Cell proliferation assay in MCF-7 breast cancer cells (MTT); assay type: cell-based, human; conditions: for IC50: MCF-7 cells, 7 days of culture, MTT
Experimental: MCF-7 cells are human mammary carcinoma cells that are positive for estrogen receptors. The potential activity of vitamin D3 analogs against breast cancer was assessed from inhibition of proliferation of MCF-7 cells in culture.
MCF-7 cells were plated at 5000 cells/well in 96-well plates and incubated at 37°C in 5% CO2/95% air in Dulbecco's Modified Eagle Medium containing 10% fetal bovine serum 700 nM insulin, 2 mM glutamine, 0.1 mM MEM non-essential amino acids and 1 mM sodium pyruvate. Stock solutions of vitamin D3 analogs were prepared at a concentration of 10 mM in absolute ethanol and stored at -20°C under argon. One day after plating, MCF-7 cells were refed with either control medium or medium containing varying concentrations of the vitamin D3 analog.
For each vitamin D3 analog, the IC50 value was determined from a graph relating the optical density at 570 nm to the concentration used. The IC50 value was defined as the concentration of the vitamin D3 analog corresponding to half-maximal reduction in 570 nm absorbance.

[4] = tested on: postmenopausal osteoporosis; conditions: 0.25 microgram twice daily, after 3 years, mild to moderate disease, versus elemental calcium 1000 mg/day; cited from earlier work

Row | Compound | Final Ca Levels (mg/ml) ([1]; 0.1 µg/kg/day po) | PTH pg/ml T=1-T=0 ([1]; 0.1 µg/kg/day po) | Final Ca Levels (mg/ml) ([1]; 1 µg/kg/day po) | PTH pg/ml T=1-T=0 ([1]; 1 µg/kg/day po) | Final Ca Levels (mg/ml) ([1]; 10 µg/kg/day po) | PTH pg/ml T=1-T=0 ([1]; 10 µg/kg/day po) | suppressing the elevated levels of parathyroid hormone ([1]; compared with 1,25(OH)2 vit. D3, summary in words) | elevated calcium levels ([1]; summary in words) | IC50 [2] | potency relative to 1,25-dihydroxy-cholecalciferol in inhibition of ZR-75 breast cells growth ([2]; ratio of IC50 values) | IC50 [3] | potency relative to 1,25-dihydroxy-cholecalciferol in inhibition of MCF-7 breast cells growth ([3]; ratio of IC50 values) | IC50 ([2]; Homo sapiens, ZR75, 240 h) | lower rate of new vertebral fractures [4] | IC50 ([3]; Homo sapiens, MCF7, 168 h)
1 | (1α,3β,5Z,7E)-21-(3-hydroxy-3-methylbutyl)-9,10-Secocholesta-5,7,10, (19)-triene-1,3,25-triol [Formula Ia] | 10.20 | 112 pg/mL | 10.35 | -124 pg/mL | 11.97 | -132 pg/mL | more effective than 1,25(OH)2 vit. D3 | without causing elevated calcium levels | 0.3 nM | more than 40 times | 0.8 nM | approximately 50 times |  |  | 
2 | C=C1/C(=C\C=C2/CCC[C@]3(C)[C@@H]([C@H](C)CCCC(C)(C)O)CC[C@@H]23)C[C@@H](O)C[C@@H]1O [1,25(OH)2 vit. D3, 1,25-dihydroxyvitamin D3, reference compound] |  | -66 pg/mL |  |  |  |  |  |  |  |  |  |  | 13 nM | 3 fold | 40 nM
